The test concerns donor heart graft (rejection). In words: Rat heart transplantation (graft survival). It is filed as in vivo, rat (Male Lewis and BN). The source says:
A. Rat Heart Transplantation
The strain combination used: Male Lewis (RT^1 haplotype) and BN (RT^1 haplotype). The animals are anaesthetised using inhalational isofluorane. […] The aorta is ligated and divided distal to the first branch and the brachiocephalic trunk is divided at the first bifurcation. The left pulmonary artery is ligated and divided and the right side divided but left open. All other vessels are dissected free, ligated and divided and the donor heart is removed into iced saline.
The recipient is prepared by dissection and cross-clamping of the infra-renal abdominal aorta and vena cava. The graft is implanted with end-to-side anastomoses, using 10/0 monofilament suture, between the donor brachiocephalic trunk and the recipient aorta and the donor right pulmonary artery to the recipient vena cava. The clamps are removed, the graft tethered retroabdominally, the abdominal contents washed with warm saline and the animal is closed and allowed to recover under a heating lamp. Graft survival is monitored by daily palpation of the beating donor heart through the abdominal wall. Rejection is considered to be complete when heart beat stops.

These results are taken from patent US20090062301A1, “PHARMACEUTICAL COMBINATION COMPOSITION COMPRISING AT LEAST ONE PKC INHIBITOR AND AT LEAST ONE JA K3 KINASE INHIBITOR FOR TREATING AUTOIMMUNE DISORDERS” (priority 2006, published 2009).

`C[C@@H]1CCN(C(=O)CC#N)C[C@@H]1N(C)c1ncnc2[nH]ccc12` [CP-690,550, 3-{(3R,4R)-4-methyl-3-[methyl-(7H-pyrrolo[2,3-d]pyrimidin-4-yl)-amino]-piperidin-1-yl}-3-oxo-propionitrile]: where the note is “672 h, rat heart transplantation, CP-690,550 in mono-citrate salt form, concentration in blood, read-out: EC50 (drug concentration in blood at which 50% of the animals maintain their graft for >28 days)”, the EC50 was found to be 0.06 µg/mL. In addition, the graft survival entry (rat heart transplantation, Compound A in the acetate form at 1 to 30 mg/kg/day and CP-690,550 mono-citrate at an EC50 of 60 ng/ml) was “significantly increase the graft survival”.
With `CN1CCN(c2nc(C3=C(c4c[nH]c5ccccc45)C(=O)NC3=O)c3ccccc3n2)CC1` [Compound A, 3-(1.H.-indol-3-yl)-4-[2-(4-methyl-piperazin-1-yl)-quinazolin-4-yl]-pyrrole-2,5-dione], the graft survival result (rat, in vivo) was “significantly increase the graft survival”.
